Assay in all cases: PAL photoswitching, whole-cell patch clamp in HEK cells
Holding throughout (assay type): cell-based

The target of one experiment is T1, BKα channels (Homo sapiens, UniProt Q12791).
T1 construct: expressed in transfected cells; host or cells: HEK cells
The note with it: n=6. Here is the method: (§1) Cell culture and transfection. HEK293 cells were grown in DMEM containing 5% fetal bovine serum, at 37° C., 7% CO2. For electrophysiology, cells were plated at 12×10^5 cells/cm^2 on poly-L-lysine coated coverslips and transfected using the calcium phosphate method. Recordings were performed 24-36 hours after transfection.
(§2) PAL attachment. HEK293 and hippocampal cells were rinsed in extracellular solution containing in mM: 138 NaCl, 1.5 KCl, 1.2 MgCl2, 2.5 CaCl2, 5 HEPES, 10 glucose and incubated at 37° C. in the dark with 200-250 μM PAL for 15 minutes. For slices, AAQ was diluted to 200 μM in aCSF and treatment was performed in the dark at room temperature for 10 minutes.
(§3) Electrophysiological recording. Recordings from HEK293 and hippocampal neurons were made in the whole-cell patch clamp configuration using a PC-501A amplifier (Warner Instruments). Pulse protocols and measurements were carried out with pCLAMP and a Digidata 1322 interface (Axon Instruments). For voltage-clamp experiment, cells were held at −70 mV. Data was recorded at 20 kHz and filtered at 2 kHz. Recording pipettes with 2.5-4 MΩ resistance were filled with intracellular solution containing in mM: 10 NaCl, 135 K-gluconate, 10 HEPES, 2 MgCl2, 2 MgATP, 1 EGTA, pH 7.4.
(§4) Illumination was provided using a xenon lamp (Sutter Instruments) with narrow band pass filters (380 BP10 for UV and 500 BP5 for visible light respectively). Excitation filters were changed using a lambda 10-2 filter changer (Sutter Instruments) controlled via pCLAMP software.
(§5) Percent photoswitching was defined as the difference between current in UV and visible light divided by current in UV. All data shown in bar graphs are averages±standard error of the mean.

The next experiment deals with T2, Kv1.2 (Homo sapiens, UniProt P16389).
T2 construct: expressed in transfected cells; host or cells: HEK cells
T2 sequence (P16389 whole entry): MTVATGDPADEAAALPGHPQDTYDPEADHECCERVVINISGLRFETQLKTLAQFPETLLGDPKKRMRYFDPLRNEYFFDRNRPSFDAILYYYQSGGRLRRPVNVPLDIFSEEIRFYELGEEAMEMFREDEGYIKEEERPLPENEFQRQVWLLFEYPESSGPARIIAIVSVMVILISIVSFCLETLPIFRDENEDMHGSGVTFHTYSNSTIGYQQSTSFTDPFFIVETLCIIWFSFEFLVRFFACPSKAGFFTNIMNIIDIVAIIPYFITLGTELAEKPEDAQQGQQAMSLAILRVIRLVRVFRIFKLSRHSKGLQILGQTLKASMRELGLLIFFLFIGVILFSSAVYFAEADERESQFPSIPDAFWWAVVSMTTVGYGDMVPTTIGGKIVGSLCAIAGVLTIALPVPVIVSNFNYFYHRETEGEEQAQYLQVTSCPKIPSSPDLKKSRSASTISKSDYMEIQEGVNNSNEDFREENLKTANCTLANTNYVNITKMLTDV
As for the experimental part: as §1, §2, §3, §4, §5

A further experiment deals with T3, Kv1.4 (Homo sapiens, UniProt P22459).
T3 construct: expressed in transfected cells; host or cells: HEK cells
T3 sequence (P22459 whole entry): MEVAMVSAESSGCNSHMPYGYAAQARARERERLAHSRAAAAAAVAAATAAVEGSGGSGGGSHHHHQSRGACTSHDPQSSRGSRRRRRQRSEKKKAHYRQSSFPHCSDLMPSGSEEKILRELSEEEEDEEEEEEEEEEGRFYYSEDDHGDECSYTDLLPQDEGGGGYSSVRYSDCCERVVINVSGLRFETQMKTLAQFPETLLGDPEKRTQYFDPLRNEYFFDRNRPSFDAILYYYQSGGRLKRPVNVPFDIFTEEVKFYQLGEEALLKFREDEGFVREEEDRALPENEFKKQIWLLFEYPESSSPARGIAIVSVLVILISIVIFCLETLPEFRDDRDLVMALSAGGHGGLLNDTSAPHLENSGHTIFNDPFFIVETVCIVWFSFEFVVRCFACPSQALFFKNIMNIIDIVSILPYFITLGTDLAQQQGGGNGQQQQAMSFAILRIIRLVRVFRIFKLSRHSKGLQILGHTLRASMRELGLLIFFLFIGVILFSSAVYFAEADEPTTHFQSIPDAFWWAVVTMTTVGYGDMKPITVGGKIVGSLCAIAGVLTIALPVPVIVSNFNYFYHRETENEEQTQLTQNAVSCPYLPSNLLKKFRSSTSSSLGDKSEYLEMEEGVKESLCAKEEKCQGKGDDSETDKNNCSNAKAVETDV
To be noted: n=6. Here is the method:
as §1, §2, §3, §4, §5

Another experiment has as its target T4, Kv3.1 (Homo sapiens, UniProt P48547).
T4 construct: expressed in transfected cells; host or cells: HEK cells
T4 sequence (P48547 1-511): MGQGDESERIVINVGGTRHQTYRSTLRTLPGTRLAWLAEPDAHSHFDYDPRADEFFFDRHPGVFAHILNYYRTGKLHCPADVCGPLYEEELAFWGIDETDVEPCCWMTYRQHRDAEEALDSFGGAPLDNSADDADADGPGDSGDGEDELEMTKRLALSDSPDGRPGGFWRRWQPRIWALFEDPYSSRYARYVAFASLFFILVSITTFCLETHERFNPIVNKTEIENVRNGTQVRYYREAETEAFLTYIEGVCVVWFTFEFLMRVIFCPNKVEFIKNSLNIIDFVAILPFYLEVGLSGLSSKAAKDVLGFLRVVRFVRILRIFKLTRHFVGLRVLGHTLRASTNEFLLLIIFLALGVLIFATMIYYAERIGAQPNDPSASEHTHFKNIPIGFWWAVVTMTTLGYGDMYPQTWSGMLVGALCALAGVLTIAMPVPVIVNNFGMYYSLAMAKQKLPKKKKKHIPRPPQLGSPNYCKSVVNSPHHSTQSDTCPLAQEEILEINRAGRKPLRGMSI
As for the experimental part: as §1, §2, §3, §4, §5

The next experiment addresses T5, Kv3.3 (Homo sapiens, UniProt Q14003).
T5 construct: expressed in transfected cells; host or cells: HEK cells
T5 sequence (Q14003 1-757): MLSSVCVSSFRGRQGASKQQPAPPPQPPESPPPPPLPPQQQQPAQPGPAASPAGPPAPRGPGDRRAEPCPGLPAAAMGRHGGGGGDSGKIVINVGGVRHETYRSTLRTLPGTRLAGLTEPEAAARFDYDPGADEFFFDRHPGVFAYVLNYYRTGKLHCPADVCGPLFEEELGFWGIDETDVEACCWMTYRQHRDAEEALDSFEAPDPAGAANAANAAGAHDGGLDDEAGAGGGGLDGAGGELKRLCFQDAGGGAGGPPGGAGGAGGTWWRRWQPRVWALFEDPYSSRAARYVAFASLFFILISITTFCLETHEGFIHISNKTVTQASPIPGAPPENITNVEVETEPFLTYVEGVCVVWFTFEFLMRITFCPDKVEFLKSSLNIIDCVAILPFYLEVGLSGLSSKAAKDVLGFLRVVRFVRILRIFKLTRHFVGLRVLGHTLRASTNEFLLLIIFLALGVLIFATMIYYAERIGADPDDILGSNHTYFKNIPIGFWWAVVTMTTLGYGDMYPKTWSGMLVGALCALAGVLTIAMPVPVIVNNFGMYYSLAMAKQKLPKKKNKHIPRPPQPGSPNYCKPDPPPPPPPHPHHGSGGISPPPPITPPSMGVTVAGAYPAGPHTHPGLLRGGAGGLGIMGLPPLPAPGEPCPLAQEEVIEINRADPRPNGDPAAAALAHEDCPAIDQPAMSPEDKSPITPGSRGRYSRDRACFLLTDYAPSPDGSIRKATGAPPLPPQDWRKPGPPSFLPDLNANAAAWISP
Here is the method:
as §1, §2, §3, §4, §5

T1 sequence (Q12791 whole entry): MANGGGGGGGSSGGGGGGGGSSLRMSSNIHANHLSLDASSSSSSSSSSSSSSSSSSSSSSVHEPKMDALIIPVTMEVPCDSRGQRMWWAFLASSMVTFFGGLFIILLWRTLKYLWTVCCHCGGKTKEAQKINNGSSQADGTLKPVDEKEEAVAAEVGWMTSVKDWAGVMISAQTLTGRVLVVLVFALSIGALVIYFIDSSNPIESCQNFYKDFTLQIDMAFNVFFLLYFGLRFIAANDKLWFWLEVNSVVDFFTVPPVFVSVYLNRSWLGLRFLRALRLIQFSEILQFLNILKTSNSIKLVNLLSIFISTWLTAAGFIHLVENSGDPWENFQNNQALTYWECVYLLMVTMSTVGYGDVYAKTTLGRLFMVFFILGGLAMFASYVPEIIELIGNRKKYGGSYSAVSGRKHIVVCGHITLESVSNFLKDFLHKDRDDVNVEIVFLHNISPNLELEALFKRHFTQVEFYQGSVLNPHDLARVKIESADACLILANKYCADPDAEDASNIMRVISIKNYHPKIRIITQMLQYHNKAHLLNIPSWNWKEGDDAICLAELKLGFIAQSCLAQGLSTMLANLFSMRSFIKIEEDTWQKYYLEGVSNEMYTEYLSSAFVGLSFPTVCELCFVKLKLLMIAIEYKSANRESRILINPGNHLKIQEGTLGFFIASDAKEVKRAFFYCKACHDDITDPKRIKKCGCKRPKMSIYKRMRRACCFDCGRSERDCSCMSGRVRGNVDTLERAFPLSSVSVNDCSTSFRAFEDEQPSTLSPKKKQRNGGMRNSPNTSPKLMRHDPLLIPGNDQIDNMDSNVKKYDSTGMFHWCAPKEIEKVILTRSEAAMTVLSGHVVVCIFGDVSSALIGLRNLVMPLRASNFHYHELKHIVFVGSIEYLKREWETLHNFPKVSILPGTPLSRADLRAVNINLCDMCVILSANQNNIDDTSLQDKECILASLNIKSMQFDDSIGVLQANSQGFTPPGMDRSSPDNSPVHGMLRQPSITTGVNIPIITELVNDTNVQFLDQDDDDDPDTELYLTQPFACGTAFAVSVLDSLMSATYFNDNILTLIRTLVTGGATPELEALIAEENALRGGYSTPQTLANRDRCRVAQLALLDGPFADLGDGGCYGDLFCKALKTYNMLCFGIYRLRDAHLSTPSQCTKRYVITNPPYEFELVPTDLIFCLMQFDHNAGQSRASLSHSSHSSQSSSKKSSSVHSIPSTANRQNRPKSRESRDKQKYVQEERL

Turning to `C=CC(=O)Nc1ccc(/N=N/c2ccc(NC(=O)C[N+](CC)(CC)CC)cc2)cc1` [AAQ], at BKα channels, the “current regulated by light” value is recorded as ~45%. Also, the “light-sensitivity imparted on channel” value at Kv1.2, on Kv3.1 and at Kv3.3 was “imparted light-sensitivity” throughout. Moreover, the “current turned on and off by light” value on Kv1.4 is ~80%.
